This assay has as its target T1, Pepsin (Bos taurus, UniProt P00792).
T1 construct: from tissue; host or cells: bovine pancreas (so in the source)
Briefly: Inhibition against pepsin (hemoglobin degradation, UV absorption at 280 nm). In kind it is biochemical, Bovine. Particulars: substrate 2.0% hemoglobin in 0.06N-hydrochloric acid, 35° C., 10 minutes; read-out: IC50 (concentration of the compound required to achieve 50% inhibition).

Where a SMILES comes first, the peptide text is derived from it. [ ]: non-standard residue; d: D form. The star is where a group is joined. Sta = CC(C)C[C@H](N)[C@@H](O)CC(=O)O; Isovaleryl = CC(C)CC(=O)*

This passage reports IC50 results from patent US5087614A, “Enzyme inhibitor and method of producing the same” (Suntory Limited, priority 1987, dated 1992).

T1 sequence (P00792 43-372): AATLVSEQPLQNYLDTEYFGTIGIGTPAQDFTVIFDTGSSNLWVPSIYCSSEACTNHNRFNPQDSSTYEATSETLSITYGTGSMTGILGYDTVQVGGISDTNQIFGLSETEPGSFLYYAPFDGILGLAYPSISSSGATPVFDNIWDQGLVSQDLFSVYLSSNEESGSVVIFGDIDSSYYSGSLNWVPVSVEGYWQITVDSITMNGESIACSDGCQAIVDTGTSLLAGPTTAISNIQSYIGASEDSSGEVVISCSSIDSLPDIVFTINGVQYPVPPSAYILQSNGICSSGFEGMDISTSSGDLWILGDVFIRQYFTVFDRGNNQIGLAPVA
Experimental: (a) Inhibition against Pepsin from Bovine Pancreas
To this mixture was added (150-a) μl of 0.06N-hydrochloric acid to adjust the pH value of the mixture to 3 to 5. Each of the solutions was then mixed with a substrate solution to start the reaction. The substrate for the reaction comprised 2.0% hemoglobin in 800 μl of 0.06N-hydrochloric acid and the reaction was conducted at 35° C. for 10 minutes, the total volume of the reaction mixture being 1 ml. 3 ml of 5% trichloroacetic acid was then added to the reaction mixture to terminate the reaction. After the precipitates formed had been filtered off, the amount of protein in the trichloroacetic acid fraction which contained the components of hemoglobin hydrolyzed with pepsin was measured from the value of ultraviolet absorption at 280 nm.

Take `CC(C)CC(=O)N[C@H](C(=O)N[C@H](C(=O)N[C@@H](CC(C)C)[C@@H](O)CC(=O)N[C@@H](C)C(=O)N[C@@H](CC(C)C)[C@@H](O)CC(=O)O)C(C)C)C(C)C` [Pepstatin] (Isovaleryl-VV[Sta]A[Sta]-OH): the IC50 worked out at 18.3 nM.
